# Measured values reported in patent EP4702986A1, “POLYPEPTIDE AND USE THEREOF” (Biocells (Beijing) Biotech Co., Ltd., priority 2023, dated 2024).
# “Also recorded” adds a separate entry of the source. Like-named read-outs stand apart in the source and are kept apart here. Numbered stars: 1 amine (or outer) side, 2 acyl side, 3 side chain; on linkers, the order of the positions; unused ones are H or OH. Bridge positions count the residues as written; N and C are the ends. Side chains are listed from the residue outwards. Peptide text beside a SMILES is read from it. * marks the point of attachment. C18 diacid = O=C(O)CCCCCCCCCCCCCCCCC(=O)*; γGlu = O=C(O)[C@H](CCC(=O)[*:2])N[*:1]; Ethylenediamine = C(CN[*:2])N[*:1]; Stearoyl = CCCCCCCCCCCCCCCCCC(=O)*; Palmitoyl = CCCCCCCCCCCCCCCC(=O)*; Fumaroyl = O=C(O)/C=C/C(=O)*; Suc = O=C(CCC(=O)[*:2])[*:1]; Lauroyl = CCCCCCCCCCCC(=O)*; AEEA = NCCOCCOCC(=O)O
# How the values were obtained:
# male SD rats [1] = conditions: one animal per row, observed 48 hours
# Procedure: In an experiment about acute toxicity of subcutaneous administration, male SD rats weighing 200-230 g were dosed in a range between 60 µg/Kg and 960 µg/Kg. Observation was made for 48 hours after subcutaneous administration. Toxic response and mortality of the rats were preliminarily observed, and time of death and doses without mortality were recorded. The level of acute toxicity of the polypeptides was preliminarily determined based on the doses without mortality.
# [2] = Determination of half-lives of polypeptides (plasma, LC-MS); conditions: for half-life: C57 BL/6, mouse, plasma, iv; for AUClast 0-30 min: C57 BL/6 mice, dosage per compound 0.48, 0.96 or 1 mpk; for AUClast 0-30 min / T1/2: i.v.; for T1/2: Table 1, mice
# human ETA receptor = target: T1, human ETA receptor (Homo sapiens, UniProt P25101); assay: Selectivity of polypeptides on human ETA receptor (IP-One Gq kit, % of positive control ET1); assay type: cell-based; conditions: read-out: hETAR agonist activity, percentage of activity relative to ET1
# T1 construct: expressed in transfected cells; host or cells: 293T-17 cells, transient transfection
# T1 sequence (P25101 21-427): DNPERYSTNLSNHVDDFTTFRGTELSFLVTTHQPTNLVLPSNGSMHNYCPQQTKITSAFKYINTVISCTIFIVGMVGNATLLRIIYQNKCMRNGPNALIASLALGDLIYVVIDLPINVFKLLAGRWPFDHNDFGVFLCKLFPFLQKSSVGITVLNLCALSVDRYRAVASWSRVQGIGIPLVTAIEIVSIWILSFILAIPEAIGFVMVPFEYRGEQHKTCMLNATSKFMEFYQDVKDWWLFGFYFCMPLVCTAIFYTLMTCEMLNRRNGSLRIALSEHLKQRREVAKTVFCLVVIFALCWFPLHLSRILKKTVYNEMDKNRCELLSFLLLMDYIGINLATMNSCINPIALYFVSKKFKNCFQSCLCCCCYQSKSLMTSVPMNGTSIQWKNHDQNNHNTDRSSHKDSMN
# Procedure: 293T-17 cells were seeded at a density of 650,000 cells per well in a 6-well plate and cultured overnight in an incubator at 37°C and 5% CO2. Afterward, the cells were transfected with an expression vector, PCDNA3.1-hETA which contained a human ETA receptor gene, at a plasmid concentration of 2.5 µg per well. The cells were further cultured for 48 hours, and green fluorescence expression was observed under a fluorescence microscope. The cells were then digested with trypsin and counted. The activity of compounds on the human ETA receptor was determined with the IP-One Gq kit from Cisbio Bioassays. The cells were suspended in Stim Buffer provided in the kit and the cell suspension was added to a 96-well detection plate at 7 µL cell suspension (containing 30,000 cells) per well. The polypeptides to be screened for activity (prepared according to the Preparation Example of the invention) and polypeptide human endothelin ET1 as positive control were dissolved in Stim B to be at a concentration of 2×, and 7 µL was added to the test cells, while 7 µL of PBS solution was added to the cells in the negative control wells. Human endothelin ET1 (ET1: […] (C1-C15,C3-C11)) set forth in SEQ ID No. 85 was used as the positive control polypeptide. The plate was sealed and incubated at 37°C for 1 h in a cell culture incubator. Detection wells, positive control wells, and PBS control wells were each added with 3 µL of IP1 d2 working solution and 3 µL of IP1 Tb cryptotate Antibody working solution. The plate was sealed and incubated in the dark at room temperature (25°C±5°C) for 1 h. The plate seal was removed, and the […] at 665 nm and 620 nm was measured with an ID5 microplate reader. The ratio of the acceptor emission signal to the donor emission signal, i.e., the value of (signal at 665 nm/signal at 620 nm)×10^4, was calculated for each well. With F3 representing the average value of values of signal at 665 nm/signal at 620 nm determined for the test sample at a specific concentration, F5 representing the average value of values of signal at 665 nm/signal at 620 nm determined for the positive control human endothelin ET1 at the same concentration, and T3 representing the average value of values of signal at 665 nm/signal at 620 nm determined for the PBS negative control, the percentage of activity of the test polypeptide sample relative to the positive control sample ET1 = (F3-T3)×100/(F5-T3) (see Table 6). hETA sequence (NCBI accession number L06622.1).
# male SD rats [3] = assay: in vivo; conditions: intravenous (tail vein) 240 µg/Kg; one animal per row; observed 24 hours
# Procedure: In an experiment about acute toxicity of intravenous administration, male SD rats weighing 200-230 g were dosed in a range between 480 µg/Kg and 30 µg/Kg via tail vein injection in a descending order of dosage. […] Toxic response and mortality of the rats were preliminarily observed, and time of death and doses without mortality of the rats were recorded. The level of acute toxicity of the polypeptides was preliminarily determined based on the doses without mortality.
Structure (SMILES),Observations of Animal Status (male SD rats [1]; subcutaneous 240 µg/Kg),Observations of Animal Status (male SD rats [1]; subcutaneous 360 µg/Kg),Observations of Animal Status (male SD rats [1]; subcutaneous 480 µg/Kg),half-life [2],AUClast 0-30 min [2],T1/2 [2],activation at 10 µM (human ETA receptor),activation at 100 µM (human ETA receptor),Observations of Animal Status (male SD rats [3])
CCCCCCCCCCCC(=O)N[C@@H](CCC(=O)O)C(=O)NCCOCCOCC(=O)NCCCC[C@H](NC(=O)[C@H](Cc1c[nH]cn1)NC(=O)[C@H](C)NC(=O)[C@H](Cc1ccccc1)NC(=O)[C@H](Cc1ccc(O)cc1)NC(=O)[C@@H](NC(=O)[C@H](C)NC(=O)[C@H](CCC(=O)O)NC(=O)[C@H](CCC(=O)O)NC(=O)[C@H](CC(=O)O)NC(=O)/C=C/C(=O)O)C(C)C)C(=O)N[C@@H](CC(=O)O)C(=O)N[C@H](C(=O)N[C@H](C(=O)N[C@@H](Cc1c[nH]c2ccccc12)C(=O)O)[C@@H](C)CC)C(C)C [BX238-Na] (Fumaroyl-DEEAVYFAHK([AEEA-Glu-Lauroyl])DVIW-OH),No obvious abnormal reaction observed within 48 hours,No obvious abnormal reaction observed within 48 hours,"Developed rapid breathing at 50 minutes after administration, showed no willingness to move, recovered 2 hours after administration; also recorded: Developed rapid breathing at 21 minutes after administration, died at 26 minutes after administration; also recorded: Developed rapid breathing at 10 minutes after administration, died at 47 minutes after administration; also recorded: Developed rapid breathing at 45 minutes after administration, showed no willingness to move, recovered 2 hours after administration; also recorded: Developed rapid breathing at 20 minutes after administration, died at 55 minutes after administration",,,,,,
CCCCCCCCCCCCCCCCCC(=O)NCCOCCOCC(=O)NCCOCCOCC(=O)N[C@@H](CCC(=O)NCCCC[C@H](NC(=O)[C@H](Cc1c[nH]cn1)NC(=O)[C@H](C)NC(=O)[C@H](Cc1ccccc1)NC(=O)[C@H](Cc1ccc(O)cc1)NC(=O)[C@@H](NC(=O)[C@H](C)NC(=O)[C@H](CCC(=O)O)NC(=O)[C@H](CCC(=O)O)NC(=O)[C@H](CC(=O)O)NC(=O)/C=C/C(=O)O)C(C)C)C(=O)N[C@@H](CC(=O)O)C(=O)N[C@H](C(=O)N[C@H](C(=O)N[C@@H](Cc1c[nH]c2ccccc12)C(=O)O)[C@@H](C)CC)[C@@H](C)CC)C(=O)O [BX-69] (Fumaroyl-DEEAVYFAHK([γGlu-AEEA-AEEA-Stearoyl])DIIW-OH),,,,30 min,1611 ng·h/mL,T1/2=30min;,13.1%,11.5%,
CCCCCCCCCCCCCCCC(=O)NCCOCCOCC(=O)NCCOCCOCC(=O)N[C@@H](CCC(=O)NCCCC[C@H](NC(=O)[C@H](Cc1c[nH]cn1)NC(=O)[C@H](C)NC(=O)[C@H](Cc1ccccc1)NC(=O)[C@H](Cc1ccc(O)cc1)NC(=O)[C@@H](NC(=O)[C@H](C)NC(=O)[C@H](CCC(=O)O)NC(=O)[C@H](CCC(=O)O)NC(=O)[C@H](CC(=O)O)NC(=O)/C=C/C(=O)O)C(C)C)C(=O)N[C@@H](CC(=O)O)C(=O)N[C@H](C(=O)N[C@H](C(=O)N[C@@H](Cc1c[nH]c2ccccc12)C(=O)O)[C@@H](C)CC)[C@@H](C)CC)C(=O)O [BX-70] (Fumaroyl-DEEAVYFAHK([γGlu-AEEA-AEEA-Palmitoyl])DIIW-OH),,,,41 min,1701 ng·h/mL,T1/2=41min;,-15.8%,13.5%,
CCCCCCCCCCCC(=O)NCCOCCOCC(=O)NCCOCCOCC(=O)N[C@@H](CCC(=O)NCCCC[C@H](NC(=O)[C@H](Cc1c[nH]cn1)NC(=O)[C@H](C)NC(=O)[C@H](Cc1ccccc1)NC(=O)[C@H](Cc1ccc(O)cc1)NC(=O)[C@@H](NC(=O)[C@H](C)NC(=O)[C@H](CCC(=O)O)NC(=O)[C@H](CCC(=O)O)NC(=O)[C@H](CC(=O)O)NC(=O)/C=C/C(=O)O)C(C)C)C(=O)N[C@@H](CC(=O)O)C(=O)N[C@H](C(=O)N[C@H](C(=O)N[C@@H](Cc1c[nH]c2ccccc12)C(=O)O)[C@@H](C)CC)[C@@H](C)CC)C(=O)O [BX-71] (Fumaroyl-DEEAVYFAHK([γGlu-AEEA-AEEA-Lauroyl])DIIW-OH),,,,23 min,2049 ng·h/mL,T1/2=23min;,-9.66%,-9.49%,
CC[C@H](C)[C@H](NC(=O)[C@@H](NC(=O)[C@H](CC(=O)O)NC(=O)[C@H](CC(C)C)NC(=O)[C@H](Cc1c[nH]cn1)NC(=O)[C@H](C)NC(=O)[C@H](Cc1ccccc1)NC(=O)[C@H](Cc1ccc(O)cc1)NC(=O)[C@@H]1CCCCNC(=O)CC[C@H](NC(=O)[C@H](CC(=O)O)NC(=O)CCC(=O)O)C(=O)N[C@@H](CCC(=O)O)C(=O)N[C@@H](C)C(=O)N1)C(C)C)C(=O)N[C@@H](Cc1c[nH]c2ccccc12)C(=O)O [BX-76] (Suc-DEEAKYFAHLDVIW-OH; lactam 2-5),,,,3.6 min,250 ng·h/mL,,-20.9%,-7.56%,
CC[C@H](C)[C@H](NC(=O)[C@H](CC(=O)O)NC(=O)[C@H](CCCCNC(=O)CC[C@H](NC(=O)COCCOCCNC(=O)COCCOCCNC(=O)CCCCCCCCCCCCCCCCC(=O)O)C(=O)O)NC(=O)[C@H](Cc1c[nH]cn1)NC(=O)[C@H](C)NC(=O)[C@H](Cc1ccccc1)NC(=O)[C@H](Cc1ccc(O)cc1)NC(=O)[C@@H](NC(=O)[C@H](C)NC(=O)[C@H](CCC(=O)O)NC(=O)[C@H](CCC(=O)O)NC(=O)[C@H](CC(=O)O)NC(=O)/C=C/C(=O)O)C(C)C)C(=O)N[C@H](C(=O)N[C@@H](Cc1c[nH]c2ccccc12)C(N)=O)[C@@H](C)CC [BX-86] (Fumaroyl-DEEAVYFAHK([γGlu-AEEA-AEEA-C18 diacid])DIIW-NH2),,,,63 min,1146 ng·h/mL,,18.3%,10.4%,
CC[C@H](C)[C@H](NC(=O)[C@H](CC(=O)O)NC(=O)[C@H](CC(C)C)NC(=O)[C@H](Cc1c[nH]cn1)NC(=O)[C@H](C)NC(=O)[C@H](Cc1ccccc1)NC(=O)[C@H](Cc1ccc(O)cc1)NC(=O)[C@@H](NC(=O)[C@H](C)NC(=O)[C@H](CCC(=O)O)NC(=O)[C@H](CCC(=O)O)NC(=O)[C@H](CC(=O)O)NC(=O)CCC(=O)NCCNC(=O)COCCOCCNC(=O)COCCOCCNC(=O)CC[C@H](NC(=O)CCCCCCCCCCCCCCCCC(=O)O)C(=O)O)C(C)C)C(=O)N[C@H](C(=O)N[C@@H](Cc1c[nH]c2ccccc12)C(=O)O)[C@@H](C)CC [BX-256] ({C18 diacid-γGlu-AEEA-AEEA-Ethylenediamine-Suc}-DEEAVYFAHLDIIW-OH),,,,,,,,,"Developed rapid breathing and limbs turned pale purple, and developed convulsions at 16 minutes after administration; died at 27 minutes after administration; also recorded: Developed rapid breathing, the limbs and face turned purple, and had weak limbs at 15 minutes after administration; died at 21 minutes after administration"
